Earlier results as cited in patent US20250032643A1, “SYNTHETIC RECEPTORS” (UCL BUSINESS LTD, priority 2021, published 2025).

Target: T1, α1B (Homo sapiens, UniProt P35368)
T1 sequence (P35368 1-520): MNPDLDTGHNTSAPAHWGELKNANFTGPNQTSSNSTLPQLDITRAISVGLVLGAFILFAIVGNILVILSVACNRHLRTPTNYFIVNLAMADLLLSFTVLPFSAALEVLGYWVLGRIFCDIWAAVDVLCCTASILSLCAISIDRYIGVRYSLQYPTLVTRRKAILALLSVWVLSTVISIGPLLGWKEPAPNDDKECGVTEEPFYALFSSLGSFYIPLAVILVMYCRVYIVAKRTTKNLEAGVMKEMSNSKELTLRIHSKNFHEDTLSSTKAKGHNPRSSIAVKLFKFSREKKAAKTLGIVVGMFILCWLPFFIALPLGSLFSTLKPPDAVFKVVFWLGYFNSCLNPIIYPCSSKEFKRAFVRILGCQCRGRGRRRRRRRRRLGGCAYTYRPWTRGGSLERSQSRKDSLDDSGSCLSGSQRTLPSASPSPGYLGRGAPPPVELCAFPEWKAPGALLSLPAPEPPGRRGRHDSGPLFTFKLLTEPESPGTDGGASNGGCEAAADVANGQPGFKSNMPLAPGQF
Settings: read-out: binding affinity; native α1B receptor

Ki: > 1000 nM
SMILES: CN(C)CCOC(c1ccccc1)c1ccccc1 [DPH, diphenhydramine]
